Reference: patent publication US8415469B2, “Compounds and methods for kinase modulation, and indications therefor” (Plexxikon Inc., priority 2005, dated 2013)

Tests used:
Type in all cases: biochemical
B-Raf = target: T1, B-Raf (Homo sapiens, UniProt P15056); test: AlphaScreen kinase assay, B-Raf; conditions: read-out: IC50, activity toward kinase B-Raf
T1 construct: purchased Upstate Biotechnology

Ret = target: T2, Ret (Homo sapiens, UniProt P07949); test: AlphaScreen kinase assay, Ret; conditions: read-out: IC50, activity toward kinase Ret
T2 construct: P1378.pET-SF BI-PTP RET H661-R1012 HIS; made in house
T2 sequence (P07949 with tags, fused parts or gaps): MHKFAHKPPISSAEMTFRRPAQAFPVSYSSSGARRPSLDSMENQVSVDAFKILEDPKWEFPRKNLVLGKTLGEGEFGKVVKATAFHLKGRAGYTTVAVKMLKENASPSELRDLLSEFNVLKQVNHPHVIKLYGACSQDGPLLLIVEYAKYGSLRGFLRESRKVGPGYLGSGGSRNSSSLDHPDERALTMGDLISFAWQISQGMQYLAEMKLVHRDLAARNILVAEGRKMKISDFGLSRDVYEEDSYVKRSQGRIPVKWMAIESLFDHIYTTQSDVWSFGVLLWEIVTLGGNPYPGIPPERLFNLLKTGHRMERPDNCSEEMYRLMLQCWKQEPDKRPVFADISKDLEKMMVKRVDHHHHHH

Akt3 = Akt3 (Homo sapiens, UniProt Q9Y243); test: AlphaScreen kinase assay, Akt3; conditions: read-out: IC50, activity toward kinase Akt3
Source text: AlphaScreen assay was used to screen additional kinases. The assay is similarly dependent on the phosphorylation of a peptide substrate. In this assay, an antibody that recognizes phosphorylated substrate is bound to an acceptor bead. The peptide substrate is attached to biotin, which binds to a donor head that contains streptavidin. Thus phosphorylated substrate is bound by antibody and streptavidin, bringing the donor and acceptor heads into close proximity when kinase is not inhibited. The donor produces singlet oxygen which results in emission from the acceptor when they are in close proximity. Conversely, when kinase is inhibited, the donor and acceptor beads are not associated and the emission from the acceptor is reduced.
AlphaScreen assays were done using compounds dissolved in DMSO to a concentration of 20 mM. The compounds were diluted accordingly to the desired final concentrations in each sample well, using 1:3 serial dilution for a total of 8 concentration points.

c-Raf-1 = target: T3, c-Raf-1 (Homo sapiens, UniProt P04049); test: AlphaScreen kinase assay, c-Raf-1; conditions: read-out: IC50, activity toward kinase c-Raf-1
T3 construct: purchased Upstate Biotechnology

B-Raf V600E = target: T4, B-Raf V600E (Homo sapiens, UniProt P15056, V600E); test: AlphaScreen kinase assay, B-Raf V600E; conditions: read-out: IC50, activity toward kinase B-Raf V600E
T4 construct: P4254. pFastBacBD-CDC37 BRAF D437-K722-X, V600E; His6 with pFastBac HT leader (TEV site) (N); made in house; host or cells: Sf9 (baculovirus; chaperone CDC37 co-expressed)

MAP4K4 = MAP4K4 (Homo sapiens, UniProt O95819); test: AlphaScreen kinase assay, MAP4K4; conditions: read-out: IC50, activity toward kinase MAP4K4
Pyk2 = target: T5, Pyk2 (Homo sapiens, UniProt Q14289); test: AlphaScreen kinase assay, Pyk2; conditions: read-out: IC50, activity toward kinase Pyk2
T5 construct: purchased Upstate Biotechnology

Kit = target: T6, Kit (Homo sapiens, UniProt P10721); test: AlphaScreen kinase assay, Kit; conditions: read-out: IC50, activity toward kinase Kit
T6 construct: P1332.N6 BI PTP KIT M552-K948-X COD; His6 (N); made in house; host or cells: E. coli (PTP1B co-expressed)

Src = target: T7, Src (Homo sapiens, UniProt P12931); test: AlphaScreen kinase assay, Src; conditions: read-out: IC50, activity toward kinase Src
T7 construct: P1144. pET-N6 BI-PTP SRC V86-L536-X; made in house

Flt1 = target: T8, Flt1 (Homo sapiens, UniProt P17948); test: AlphaScreen kinase assay, Flt1; conditions: read-out: IC50, activity toward kinase Flt1
T8 construct: P1826.pETN6 BI-PTP FLT1 M799-D1165-X WT; His6 (N); made in house; host or cells: E. coli (PTP1B co-expressed)
T8 sequence (P17948 with tags, fused parts or gaps): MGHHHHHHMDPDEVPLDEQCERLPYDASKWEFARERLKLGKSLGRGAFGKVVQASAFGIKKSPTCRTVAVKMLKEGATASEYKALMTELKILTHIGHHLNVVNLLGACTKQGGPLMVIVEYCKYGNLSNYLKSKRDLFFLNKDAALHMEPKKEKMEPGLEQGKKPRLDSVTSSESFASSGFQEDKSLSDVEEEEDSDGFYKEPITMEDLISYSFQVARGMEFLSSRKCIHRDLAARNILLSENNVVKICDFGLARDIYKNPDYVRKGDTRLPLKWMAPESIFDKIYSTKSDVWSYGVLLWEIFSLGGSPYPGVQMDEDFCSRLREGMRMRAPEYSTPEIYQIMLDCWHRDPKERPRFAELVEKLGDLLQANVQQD

Fms = target: T9, Fms (Homo sapiens, UniProt P07333); test: AlphaScreen kinase assay, Fms; conditions: read-out: IC50, activity toward kinase Fms
T9 construct: purchased Upstate Biotechnology

FGFR1 = target: T10, FGFR1 (Homo sapiens, UniProt P11362, C488A/C584S); test: AlphaScreen kinase assay, FGFR1; conditions: read-out: IC50, activity toward kinase FGFR
T10 construct: P1351.pET N6 BI-PTP FGFR A458-E765-X C488A, C584S; made in house; host or cells: E. coli (PTP1B co-expressed)

Jnk1 = target: T11, Jnk1 (Homo sapiens, UniProt P45983); test: AlphaScreen kinase assay, Jnk1; conditions: read-out: IC50, activity toward kinase Jnk1
T11 construct: purchased Upstate Biotechnology

Jnk3 = target: T12, Jnk3 (Homo sapiens, UniProt P53779); test: AlphaScreen kinase assay, Jnk3; conditions: read-out: IC50, activity toward kinase Jnk3
T12 construct: purchased Upstate Biotechnology

Fak = target: T13, Fak (Homo sapiens, UniProt Q05397); test: AlphaScreen kinase assay, Fak; conditions: read-out: IC50, activity toward kinase Fak
T13 construct: P1358.pFastBacHtb FAK S411-Q686-X; His6 with pFastBacHTb leader (TEV site) (N); made in house; host or cells: Sf9 (baculovirus)

Btk = target: T14, Btk (Homo sapiens, UniProt Q06187); test: Z'-Lyte FRET kinase assay (Invitrogen), Btk; conditions: read-out: IC50, activity toward kinase Btk
T14 construct: purchased Invitrogen (assay run by Invitrogen)

Measured: IC50

T11 sequence (P45983 whole entry): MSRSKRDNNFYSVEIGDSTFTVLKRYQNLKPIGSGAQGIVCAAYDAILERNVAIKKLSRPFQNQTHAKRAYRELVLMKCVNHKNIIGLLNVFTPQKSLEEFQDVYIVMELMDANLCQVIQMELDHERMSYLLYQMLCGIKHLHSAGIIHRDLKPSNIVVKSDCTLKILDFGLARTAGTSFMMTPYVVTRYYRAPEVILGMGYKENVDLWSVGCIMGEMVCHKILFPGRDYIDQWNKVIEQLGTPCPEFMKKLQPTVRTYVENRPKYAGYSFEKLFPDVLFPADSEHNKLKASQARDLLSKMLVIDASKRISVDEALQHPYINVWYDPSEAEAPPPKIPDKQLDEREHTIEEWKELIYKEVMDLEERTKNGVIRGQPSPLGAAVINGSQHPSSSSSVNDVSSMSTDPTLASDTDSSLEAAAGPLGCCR
T6 sequence (P10721 with tags, fused parts or gaps): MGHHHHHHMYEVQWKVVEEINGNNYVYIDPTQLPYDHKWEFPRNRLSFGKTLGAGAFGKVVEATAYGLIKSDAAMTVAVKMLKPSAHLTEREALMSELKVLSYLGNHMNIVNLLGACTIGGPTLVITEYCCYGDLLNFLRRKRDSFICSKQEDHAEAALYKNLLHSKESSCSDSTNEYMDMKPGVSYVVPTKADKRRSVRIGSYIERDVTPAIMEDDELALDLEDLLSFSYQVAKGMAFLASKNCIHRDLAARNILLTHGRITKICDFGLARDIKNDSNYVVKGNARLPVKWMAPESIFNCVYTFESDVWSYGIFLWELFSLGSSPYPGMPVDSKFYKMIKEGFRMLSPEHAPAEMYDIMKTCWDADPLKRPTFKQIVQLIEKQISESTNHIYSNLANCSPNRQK
T7 sequence (P12931 with tags, fused parts or gaps): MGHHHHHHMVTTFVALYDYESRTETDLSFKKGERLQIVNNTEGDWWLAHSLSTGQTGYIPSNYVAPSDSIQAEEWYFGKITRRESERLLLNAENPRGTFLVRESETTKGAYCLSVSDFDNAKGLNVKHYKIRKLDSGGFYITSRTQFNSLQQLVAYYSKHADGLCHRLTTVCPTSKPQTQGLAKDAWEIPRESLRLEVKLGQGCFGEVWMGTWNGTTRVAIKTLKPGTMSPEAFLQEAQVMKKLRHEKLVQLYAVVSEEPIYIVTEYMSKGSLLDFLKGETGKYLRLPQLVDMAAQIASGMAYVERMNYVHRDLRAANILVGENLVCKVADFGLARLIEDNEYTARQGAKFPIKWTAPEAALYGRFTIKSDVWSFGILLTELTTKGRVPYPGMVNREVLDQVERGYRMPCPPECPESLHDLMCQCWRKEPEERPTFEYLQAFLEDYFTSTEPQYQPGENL
T5 sequence (Q14289 whole entry): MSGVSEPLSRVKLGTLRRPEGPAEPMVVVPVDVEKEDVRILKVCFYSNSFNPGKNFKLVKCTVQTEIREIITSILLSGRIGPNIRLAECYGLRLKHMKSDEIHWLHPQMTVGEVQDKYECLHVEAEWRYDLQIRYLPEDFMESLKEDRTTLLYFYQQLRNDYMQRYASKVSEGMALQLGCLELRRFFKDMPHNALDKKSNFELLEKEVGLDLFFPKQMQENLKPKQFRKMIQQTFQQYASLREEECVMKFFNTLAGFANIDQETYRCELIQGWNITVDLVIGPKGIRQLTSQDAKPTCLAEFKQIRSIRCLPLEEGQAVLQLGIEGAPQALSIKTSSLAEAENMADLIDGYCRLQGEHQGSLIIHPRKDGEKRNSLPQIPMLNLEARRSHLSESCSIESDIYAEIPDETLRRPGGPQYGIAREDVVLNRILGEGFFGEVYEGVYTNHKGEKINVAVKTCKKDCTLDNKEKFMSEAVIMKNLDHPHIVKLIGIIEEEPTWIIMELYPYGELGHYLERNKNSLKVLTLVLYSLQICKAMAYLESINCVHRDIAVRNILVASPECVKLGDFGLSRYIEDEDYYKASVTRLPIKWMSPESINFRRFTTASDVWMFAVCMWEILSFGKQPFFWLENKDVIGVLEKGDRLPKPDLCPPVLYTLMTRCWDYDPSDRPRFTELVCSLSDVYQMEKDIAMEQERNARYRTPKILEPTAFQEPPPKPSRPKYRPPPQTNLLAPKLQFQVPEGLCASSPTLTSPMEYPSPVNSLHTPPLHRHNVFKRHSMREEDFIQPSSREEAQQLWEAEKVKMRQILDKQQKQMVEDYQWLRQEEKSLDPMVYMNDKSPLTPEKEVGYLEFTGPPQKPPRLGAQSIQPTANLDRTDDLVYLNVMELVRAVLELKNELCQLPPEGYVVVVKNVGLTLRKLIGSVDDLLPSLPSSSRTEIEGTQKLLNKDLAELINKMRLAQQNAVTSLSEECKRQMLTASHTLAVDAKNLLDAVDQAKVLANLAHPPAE
T1 sequence (P15056 whole entry): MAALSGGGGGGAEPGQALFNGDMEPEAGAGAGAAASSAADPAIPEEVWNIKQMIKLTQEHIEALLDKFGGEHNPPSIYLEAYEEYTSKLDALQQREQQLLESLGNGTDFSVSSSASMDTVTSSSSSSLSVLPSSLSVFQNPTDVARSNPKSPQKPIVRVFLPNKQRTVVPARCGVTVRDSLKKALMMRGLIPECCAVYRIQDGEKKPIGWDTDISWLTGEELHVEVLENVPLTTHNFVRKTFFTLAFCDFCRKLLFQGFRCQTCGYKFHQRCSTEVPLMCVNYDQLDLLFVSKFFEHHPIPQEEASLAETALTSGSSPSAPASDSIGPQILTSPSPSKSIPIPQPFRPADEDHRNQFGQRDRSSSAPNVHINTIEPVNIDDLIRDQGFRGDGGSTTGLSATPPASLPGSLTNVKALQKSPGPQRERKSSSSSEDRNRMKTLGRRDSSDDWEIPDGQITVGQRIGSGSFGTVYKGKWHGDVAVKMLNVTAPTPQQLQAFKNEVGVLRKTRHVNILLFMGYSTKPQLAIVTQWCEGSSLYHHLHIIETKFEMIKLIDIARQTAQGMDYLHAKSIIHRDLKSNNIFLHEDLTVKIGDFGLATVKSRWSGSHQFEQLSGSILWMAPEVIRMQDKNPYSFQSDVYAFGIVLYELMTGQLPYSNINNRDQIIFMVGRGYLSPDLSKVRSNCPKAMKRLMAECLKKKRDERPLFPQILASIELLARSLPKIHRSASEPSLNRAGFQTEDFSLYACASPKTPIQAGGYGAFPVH
T3 sequence (P04049 whole entry): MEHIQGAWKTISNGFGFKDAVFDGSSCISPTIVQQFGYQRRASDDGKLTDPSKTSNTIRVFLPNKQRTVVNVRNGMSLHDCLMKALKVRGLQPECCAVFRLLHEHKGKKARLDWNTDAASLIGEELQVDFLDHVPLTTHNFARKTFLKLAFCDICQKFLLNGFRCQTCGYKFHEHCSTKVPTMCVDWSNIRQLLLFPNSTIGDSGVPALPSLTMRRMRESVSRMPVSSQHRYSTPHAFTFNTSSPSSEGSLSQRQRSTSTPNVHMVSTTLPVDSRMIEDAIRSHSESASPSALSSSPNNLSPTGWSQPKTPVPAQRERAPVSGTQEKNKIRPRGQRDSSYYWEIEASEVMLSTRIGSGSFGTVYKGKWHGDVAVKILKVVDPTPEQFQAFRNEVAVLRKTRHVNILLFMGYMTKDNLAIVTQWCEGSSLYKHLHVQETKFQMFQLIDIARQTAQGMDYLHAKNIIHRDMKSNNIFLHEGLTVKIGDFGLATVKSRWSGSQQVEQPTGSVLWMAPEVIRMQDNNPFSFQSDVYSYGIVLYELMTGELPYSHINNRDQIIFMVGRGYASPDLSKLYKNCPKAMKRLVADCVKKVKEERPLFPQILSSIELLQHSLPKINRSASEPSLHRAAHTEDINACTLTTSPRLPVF
T10 sequence (P11362 458-765 C488A/C584S): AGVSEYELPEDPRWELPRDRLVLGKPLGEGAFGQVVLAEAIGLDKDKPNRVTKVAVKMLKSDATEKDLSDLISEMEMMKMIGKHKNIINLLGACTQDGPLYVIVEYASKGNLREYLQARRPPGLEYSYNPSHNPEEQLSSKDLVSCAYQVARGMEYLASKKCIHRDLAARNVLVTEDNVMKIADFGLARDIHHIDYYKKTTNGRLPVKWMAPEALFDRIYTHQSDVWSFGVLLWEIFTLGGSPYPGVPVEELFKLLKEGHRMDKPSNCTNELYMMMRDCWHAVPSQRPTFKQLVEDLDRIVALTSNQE
T12 sequence (P53779 whole entry): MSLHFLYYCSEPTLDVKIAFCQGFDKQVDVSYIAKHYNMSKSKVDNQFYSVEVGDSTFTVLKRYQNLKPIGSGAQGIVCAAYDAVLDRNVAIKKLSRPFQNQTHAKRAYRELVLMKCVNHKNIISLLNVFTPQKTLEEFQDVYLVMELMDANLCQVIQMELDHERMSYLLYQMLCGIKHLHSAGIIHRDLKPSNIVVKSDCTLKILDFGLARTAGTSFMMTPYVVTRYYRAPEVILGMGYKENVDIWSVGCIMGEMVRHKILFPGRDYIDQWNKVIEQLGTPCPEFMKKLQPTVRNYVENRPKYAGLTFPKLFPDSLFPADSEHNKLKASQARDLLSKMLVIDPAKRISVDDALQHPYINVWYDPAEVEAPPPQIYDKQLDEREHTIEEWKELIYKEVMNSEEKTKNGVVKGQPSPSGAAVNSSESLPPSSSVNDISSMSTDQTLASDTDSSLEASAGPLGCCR
Sequence of Akt3 (Q9Y243 whole entry): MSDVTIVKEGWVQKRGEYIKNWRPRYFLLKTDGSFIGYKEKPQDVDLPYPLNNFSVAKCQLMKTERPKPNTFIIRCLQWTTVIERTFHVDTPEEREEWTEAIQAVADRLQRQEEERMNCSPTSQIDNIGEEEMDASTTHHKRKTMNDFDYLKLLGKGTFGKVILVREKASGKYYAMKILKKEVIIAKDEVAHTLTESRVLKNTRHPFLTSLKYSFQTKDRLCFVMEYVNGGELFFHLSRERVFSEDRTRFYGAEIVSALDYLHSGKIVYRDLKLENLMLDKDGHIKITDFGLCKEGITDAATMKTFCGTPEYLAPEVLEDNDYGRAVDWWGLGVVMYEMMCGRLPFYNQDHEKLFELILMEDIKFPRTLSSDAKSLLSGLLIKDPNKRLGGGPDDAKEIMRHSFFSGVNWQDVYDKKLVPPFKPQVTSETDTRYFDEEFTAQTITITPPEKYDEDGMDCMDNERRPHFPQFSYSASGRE

COC(c1ccc(NCc2ccc(Cl)cc2)nc1)c1c[nH]c2ncccc12 (centres unmarked) [Compound P-0307]
≤ 10 µM: B-Raf | Ret | Akt3 | c-Raf-1 | B-Raf V600E

COc1ccc(-c2c[nH]c3ncccc23)cc1OC1CCCC1 [Compound P-0573]
≤ 10 µM: MAP4K4 | Akt3 | B-Raf V600E

CN(C)c1cccc(Nc2ccnc3[nH]ccc23)c1 [Compound P-0861]
≤ 10 µM: Pyk2 | B-Raf | Akt3 | c-Raf-1 | Kit | B-Raf V600E

CCN(CC)c1ccc(Nc2ccnc3[nH]ccc23)cc1 [Compound P-0866]
≤ 10 µM: Pyk2 | B-Raf | Akt3 | Src | c-Raf-1 | Flt1 | Kit | B-Raf V600E

Clc1cccc(Nc2ccnc3[nH]ccc23)c1 [Compound P-0924]
≤ 10 µM: Pyk2 | B-Raf | Akt3 | c-Raf-1 | Kit

O=C(c1c(F)ccc(NS(=O)(=O)N2CCCCC2)c1F)c1c[nH]c2ncccc12 [Compound P-0952, Piperidine-1-sulfonic acid [2,4-difluoro-3-(1H-pyrrolo[2,3-b]pyridine-3-carbonyl)-phenyl]-amide]
≤ 10 µM: Fms | B-Raf | Akt3 | Src | c-Raf-1 | FGFR1 | Kit | B-Raf V600E

COc1ccc(S(=O)(=O)Nc2ccc(F)c(C(=O)c3c[nH]c4ncccc34)c2F)cc1 [Compound P-0958, N-[2,4-Difluoro-3-(1H-pyrrolo[2,3-b]pyridine-3-carbonyl)-phenyl]-4-methoxy-benzenesulfonamide]
not listed: Ret | Pyk2 | Jnk3 | Fak | Btk
≤ 10 µM: all other assays above

Clc1ccc(Nc2ccnc3[nH]ccc23)cc1 [Compound P-0978]
≤ 10 µM: Pyk2 | B-Raf | Akt3 | c-Raf-1 | Kit

CCCOc1ccc(Nc2cnc3[nH]ccc3c2)cc1 [Compound P-1010]
≤ 10 µM: Pyk2 | Akt3 | Src | Flt1 | Jnk3 | Kit | B-Raf V600E

CCOc1ccc(Nc2cnc3[nH]ccc3c2)cc1 [Compound P-1018]
≤ 10 µM: Pyk2 | Akt3 | Flt1 | Jnk3 | FGFR1 | Kit | B-Raf V600E

COc1ccc(Nc2cnc3[nH]ccc3c2)cc1Cl [Compound P-1021]
≤ 10 µM: Akt3 | Src | Flt1 | Jnk1 | Jnk3 | FGFR1 | Kit | B-Raf V600E

c1cc2cc(Nc3ccc4c(c3)OCCO4)cnc2[nH]1 [Compound P-1022]
≤ 10 µM: Akt3 | Jnk3 | B-Raf V600E

CC(=O)c1cccc(Nc2ccnc3[nH]ccc23)c1 [Compound P-1027]
≤ 10 µM: B-Raf | Akt3 | c-Raf-1 | Flt1 | FGFR1

Clc1ccc(Nc2cnc3[nH]ccc3c2)cc1 [Compound P-1082]
≤ 10 µM: Akt3 | Flt1 | Jnk3 | Kit | B-Raf V600E

CCCS(=O)(=O)Nc1ccc(F)c(Cc2c[nH]c3ncc(C(C)C)cc23)c1F [Compound P-1288]
≤ 10 µM: Pyk2 | B-Raf | Akt3 | Src | c-Raf-1 | Jnk1 | Fak | FGFR1 | B-Raf V600E

NC(=O)c1cccc(-c2cnc3[nH]cc(C(=O)c4ccc(O)cc4F)c3c2)c1 [Compound P-1459]
≤ 10 µM: Fms | B-Raf | Akt3 | Src | Jnk1 | Fak | Btk | FGFR1 | B-Raf V600E
